In US3972872A, “6-[α-(ω-Guanidinoalkanoylamido)acylamido]penicillanic acids” (Pfizer Inc., priority 1975, dated 1976):
Values after ≈ are worked out from the molar mass of the structure shown. Where a name gives a salt, the structure may show the parent alone. Read-outs that look alike come from different tables or passages of the source.

How the values were obtained:
[1] = test system: Pseudo. aeruginosa 490; test: In vitro MIC, Pseudo. aeruginosa 490; type: cell-based, Pseudomonas aeruginosa; conditions: unit assumed
Source text: (§1) The in vitro spectra of a number of 6-[α-(ω-guanidinoalkanoylamido)acylamido]penicillanic acids of this invention against certain gram-negative bacteria are presented in Table I below. […] Th compounds of Table I have the formula

[2] = test system: Escherichia coli 266; test: In vivo protection of mice versus Escherichia coli 266; conditions: Escherichia coli, 266, sc, 96 h, read-out: % Protection
Source text: (§2) Additionally, the compounds of this invention are active versus gram-positive and gram-negative bacteria in vivo via the parenteral route of administration in animals, including man. Their in vivo activity in animals, including man, by the oral route of administration is more limited as regards susceptible organisms. Nevertheless, oral in vivo activity against Escherichia coli and Staphylococcus aureus is a common property of many compounds of this invention. Table II below presents the comparative in vivo spectra of several compounds within the scope of this invention against D-α-aminobenzylpenicillin (Ampicillin).
(§3) The acute systemic infections in mice were produced by the intraperitoneal inoculation of standardized cultures suspended in 5% hog gastric mucin. Treatment with the drugs was initiated 0.5 hours after inoculation of the infecting organism. A second dose was administered 4 hours later. The PD50 values were calculated after a hold period of 4 days.

[3] = test system: Proteus mirabilis C015; test: In vitro MIC, Proteus mirabilis C015; type: cell-based; conditions: unit assumed
Source text: as §1

[4] = test system: E. coli 266; test: In vitro MIC, E. coli 266, two-fold serial dilution; type: cell-based, Escherichia coli; conditions: unit assumed
Source text: as §1

[5] = test system: Proteus vulgaris A059; test: In vitro MIC, Proteus vulgaris A059; type: cell-based; conditions: unit assumed
Source text: as §1

[6] = test system: Serratia marcescens A001; test: In vitro MIC, Serratia marcescens A001; type: cell-based; conditions: unit assumed
Source text: as §1

[7] = test system: Proteus mirabilis C020; test: In vitro MIC, Proteus mirabilis C020; type: cell-based; conditions: unit assumed
Source text: (§4) The in vitro activity of the herein-described compounds renders them useful for topical application in the form of ointments, creams and the like, or for sterilization purposes, e.g., sick room utensils.
as §1

[8] = test system: Proteus rettgeri B006; test: In vitro MIC, Proteus rettgeri B006; type: cell-based; conditions: unit assumed
Source text: as §4, §1

[9] = test system: Pseudo. aeruginosa 104; test: In vitro MIC, Pseudo. aeruginosa 104; type: cell-based, Pseudomonas aeruginosa; conditions: unit assumed
Source text: as §1

[10] = test system: Pseudo. aeruginosa 173; test: In vitro MIC, Pseudo. aeruginosa 173; type: cell-based, Pseudomonas aeruginosa; conditions: unit assumed
Source text: as §1

[11] = test system: P. aeruginosa; test: PD50 versus acute systemic P. aeruginosa infection in mice; type: in vivo; conditions: mice; for ED50: Pseudomonas aeruginosa, 96 h, P. aeruginosa, read-out: PD50
Source text: as §2, §3

[12] = test system: S. aureus; test: PD50 versus acute systemic S. aureus infection in mice; type: in vivo; conditions: Staphylococcus aureus, 96 h, S. aureus, mice
Source text: as §2, §3

[13] = test system: E. coli; test: PD50 versus acute systemic E. coli infection in mice; type: in vivo; conditions: Escherichia coli, 96 h, E. coli, mice
Source text: as §2, §3

[14] = 50 mg./kg., mice, subcutaneous route

MIC [1] [µg/mL]	MIC [3] [µg/mL]	MIC [4] [µg/mL]	MIC [5] [µg/mL]	MIC [6] [µg/mL]	MIC [7] [µg/mL]	MIC [8] [µg/mL]	MIC [9] [µg/mL]	MIC [10] [µg/mL]	Structure (SMILES)	responders at 50 mg/kg [2] [%]	responders at 50 mg/kg [2, 14] [%]	ED50 ([11]; oral) [mg/kg]	ED50 ([11]; sc, subcutaneous) [mg/kg]	activity against Pseudomonas aeruginosa (in words) ([11]; in vivo)	ED50 ([12]; oral) [mg/kg]	ED50 ([12]; sc, subcutaneous) [mg/kg]	ED50 ([13]; oral) [mg/kg]	ED50 ([13]; sc, subcutaneous) [mg/kg]
0.78	50	25	–	–	–	–	–	–	CC(C)(C)C(=O)OCOC(=O)[C@@H]1N2C(=O)[C@@H](NC(=O)[C@H](NC(=O)CNC(=N)N)c3ccccc3)[C@H]2SC1(C)C [CH2 NH--C(NH)NH2, R=POM, 6-[D-2-Phenyl-2-(Guanidinoacetamido)Acetamido]Penicillanic Acid, Pivaloyloxymethyl Ester, Hydrochloride]	–	90	–	–	–	–	–	–	–
0.78 (≈ 1.53 µM)	3.12 (≈ 6.11 µM)	3.12 (≈ 6.11 µM)	6.25 (≈ 12.2 µM)	3.12 (≈ 6.11 µM)	12.5 (≈ 24.5 µM)	25 (≈ 49 µM)	0.78 (≈ 1.53 µM)	0.78 (≈ 1.53 µM)	CC1(C)S[C@@H]2[C@H](NC(=O)[C@H](NC(=O)c3ccc(NC(=N)N)cc3)c3ccccc3)C(=O)N2[C@H]1C(=O)O [NH--C(NH)NH2 [1st of 4], R=H]	–	10	–	–	–	–	–	–	–
0.78 (≈ 1.53 µM)	6.25 (≈ 12.2 µM)	3.12 (≈ 6.11 µM)	3.12 (≈ 6.11 µM)	12.5 (≈ 24.5 µM)	25 (≈ 49 µM)	12.5 (≈ 24.5 µM)	1.56 (≈ 3.06 µM)	1.56 (≈ 3.06 µM)	CC1(C)S[C@@H]2[C@H](NC(=O)[C@H](NC(=O)c3cccc(NC(=N)N)c3)c3ccccc3)C(=O)N2[C@H]1C(=O)O [NH--C(NH)NH2 [2nd of 4], R=H]	–	60	–	–	–	–	–	–	–
6.25 (≈ 12.1 µM)	6.25 (≈ 12.1 µM)	6.25 (≈ 12.1 µM)	50 (≈ 96.8 µM)	12.5 (≈ 24.2 µM)	25 (≈ 48.4 µM)	50 (≈ 96.8 µM)	3.12 (≈ 6.04 µM)	1.56 (≈ 3.02 µM)	CC1(C)S[C@@H]2[C@H](NC(=O)[C@H](NC(=O)C3CCC(NC(=N)N)CC3)c3ccccc3)C(=O)N2[C@H]1C(=O)O (some centres unmarked) [NH--C(NH)NH2 [3rd of 4], R=H]	–	50	–	–	–	–	–	–	–
1.56 (≈ 2.97 µM)	12.5 (≈ 23.8 µM)	6.25 (≈ 11.9 µM)	12.5 (≈ 23.8 µM)	25 (≈ 47.7 µM)	–	–	6.25 (≈ 11.9 µM)	3.12 (≈ 5.95 µM)	CC1(C)S[C@@H]2[C@H](NC(=O)[C@H](NC(=O)Cc3ccc(NC(=N)N)cc3)c3ccccc3)C(=O)N2[C@H]1C(=O)O [NH--C(NH)NH2 [4th of 4], R=H]	–	20	–	–	–	–	–	–	–

Structure (SMILES)	MIC [1] [µg/mL]	MIC [3] [µg/mL]	MIC [4] [µg/mL]	MIC [5] [µg/mL]	MIC [6] [µg/mL]	MIC [7] [µg/mL]	MIC [8] [µg/mL]	MIC [9] [µg/mL]	MIC [10] [µg/mL]	responders at 50 mg/kg [2] [%]	responders at 50 mg/kg [2, 14] [%]	ED50 ([11]; oral) [mg/kg]	ED50 ([11]; sc, subcutaneous) [mg/kg]	activity against Pseudomonas aeruginosa (in words) ([11]; in vivo)	ED50 ([12]; oral) [mg/kg]	ED50 ([12]; sc, subcutaneous) [mg/kg]	ED50 ([13]; oral) [mg/kg]	ED50 ([13]; sc, subcutaneous) [mg/kg]
CN(CC(=O)N[C@@H](C(=O)N[C@@H]1C(=O)N2[C@@H]1SC(C)(C)[C@@H]2C(=O)OCOC(=O)C(C)(C)C)c1ccccc1)C(=N)N [CH2 N(CH3)--C(NH)NH2, R=POM, 6-{D-2-Phenyl-2-[(1-Methylguanidino)Acetamido]Acetamido}-Penicillanic Acid, Pivaloyloxymethyl Ester, Hydrochloride]	3.12	12.5	12.5	–	–	–	–	–	–	70	–	–	–	–	–	–	–	–
CC1(C)S[C@@H]2[C@H](NC(=O)[C@H](NC(=O)CNC3=NCCN3)c3ccccc3)C(=O)N2[C@H]1C(=O)O [CH2 NH--.angle..vertline., R=H, 6-[D-2-Phenyl-2-(2-Imidazolinylaminoacetamido)Acetamido]Penicillanic Acid]	3.12 (≈ 6.57 µM)	3.12 (≈ 6.57 µM)	12.5 (≈ 26.3 µM)	3.12 (≈ 6.57 µM)	25 (≈ 52.7 µM)	6.25 (≈ 13.2 µM)	100 (≈ 211 µM)	6.25 (≈ 13.2 µM)	3.12 (≈ 6.57 µM)	90	–	–	–	–	–	–	–	–
CC1(C)S[C@@H]2[C@H](NC(=O)[C@H](N)c3ccccc3)C(=O)N2[C@H]1C(=O)O [D-α-aminobenzylpenicillin, reference compound]	0.78 (≈ 2.23 µM)	1.5 (≈ 4.29 µM)	3.1 (≈ 8.87 µM)	6 (≈ 17.2 µM)	200 (≈ 572 µM)	–	–	200 (≈ 572 µM)	200 (≈ 572 µM)	–	100	> 200	> 200	inactive	2.5 ± 0.7	0.67 ± 0.4	25 ± 13	27 ± 9
